From patent US8236987B2, “Selective estrogen receptor modulator compositions and methods for treatment of disease” (The Regents of the University of California, priority 2007, dated 2012) come the findings set out here.

Assay [1] deals with GABAB receptor-mediated outward current in hypothalamic arcuate (dopamine, POMC) neurons; membrane associated estrogen receptor. Kind of assay: Whole-cell patch voltage clamp: baclofen-induced GABAB response (GIRK outward current) in hypothalamic arcuate neurons. The assay is classed as cell-based, guinea pig.
The next assay deals with T1, full length (ER)α (Homo sapiens, UniProt P03372).
T1 construct: purchased PanVera Corp, Madison, Wis., USA
T1 sequence (P03372 1-595): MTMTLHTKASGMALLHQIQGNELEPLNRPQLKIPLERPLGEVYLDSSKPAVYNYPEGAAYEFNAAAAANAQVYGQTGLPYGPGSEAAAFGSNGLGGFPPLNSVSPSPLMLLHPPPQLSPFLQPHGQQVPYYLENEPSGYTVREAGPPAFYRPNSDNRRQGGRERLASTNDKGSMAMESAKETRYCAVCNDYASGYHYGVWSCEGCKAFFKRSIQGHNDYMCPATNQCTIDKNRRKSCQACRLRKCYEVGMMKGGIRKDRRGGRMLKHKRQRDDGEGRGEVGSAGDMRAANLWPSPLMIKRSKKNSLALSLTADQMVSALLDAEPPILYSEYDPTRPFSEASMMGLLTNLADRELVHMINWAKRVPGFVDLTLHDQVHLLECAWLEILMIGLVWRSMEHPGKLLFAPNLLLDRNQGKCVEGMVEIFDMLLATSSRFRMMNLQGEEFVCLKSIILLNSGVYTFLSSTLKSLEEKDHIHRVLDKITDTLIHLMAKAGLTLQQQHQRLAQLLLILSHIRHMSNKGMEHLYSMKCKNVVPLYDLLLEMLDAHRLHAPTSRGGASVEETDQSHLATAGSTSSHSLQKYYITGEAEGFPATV
The assay is described as follows: Estrogen receptor binding assay (spin column, [3H]estradiol competition), (ER)α.

The target in a further assay is T2, full length (ER)β (Homo sapiens, UniProt Q92731).
T2 construct: to full length (ER)α or (ER)β*; purchased PanVera Corp, Madison, Wis., USA
T2 sequence (Q92731 whole entry): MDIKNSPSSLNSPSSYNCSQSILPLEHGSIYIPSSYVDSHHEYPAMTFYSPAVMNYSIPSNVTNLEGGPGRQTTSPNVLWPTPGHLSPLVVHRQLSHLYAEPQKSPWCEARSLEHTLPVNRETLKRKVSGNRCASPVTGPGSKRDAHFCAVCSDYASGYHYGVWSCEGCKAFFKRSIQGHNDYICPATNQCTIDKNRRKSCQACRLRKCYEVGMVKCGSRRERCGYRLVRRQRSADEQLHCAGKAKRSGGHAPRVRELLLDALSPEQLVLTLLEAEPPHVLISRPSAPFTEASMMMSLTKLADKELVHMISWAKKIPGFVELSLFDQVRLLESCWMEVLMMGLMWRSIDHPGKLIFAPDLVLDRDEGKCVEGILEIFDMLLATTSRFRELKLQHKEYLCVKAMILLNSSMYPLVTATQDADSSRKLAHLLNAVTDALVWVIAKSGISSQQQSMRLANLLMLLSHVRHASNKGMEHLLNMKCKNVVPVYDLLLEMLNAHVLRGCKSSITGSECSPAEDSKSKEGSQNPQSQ
The assay is described as follows: Estrogen receptor binding assay (spin column, [3H]estradiol competition), (ER)β.

In assay [2] the test system is uteri of ovariectomized C57BL/6 mice. Kind of assay: Uterine size and weight in ovariectomized mice (uterotropic action). The assay is classed as in vivo. The settings on record: 1 μg daily for 2 days, compared with oil vehicle. On the procedure: Wild-type C57BL/6 mice in these studies were obtained from Jackson laboratories. All animals were maintained under controlled temperature (25° C.) and photoperiod conditions (14-h light, 10-h dark; lights on between 0700 and 2100) with food and water ad libitum. Adult mice were ovariectomized under isoflurane anesthesia, and allowed to recover for 1 week. […] The uteri were collected, weighed and fixed in 4% paraformaldehyde for later histological analysis (data not shown).

Where [3] appears, read: 10 μM (PD98059 in the pipette), together with 17β-estradiol.

Entries after “also recorded” stand apart in the source; their conditions may differ. Where two headings read alike, the source gives them in different places.

Take 4-hydroxytamoxifen: in assay [1], the “block of the baclofen response” value is reported as 25% and the “effect on the baclofen response (in words)” value is on record as “behave like 17β-estradiol”. For the same compound, at full length (ER)α, the “Relative binding affinity (ER)α” value is 36%. Moreover, on full length (ER)β, the “Relative binding affinity (ER)β” value came out at 43%.

Take “17β-estradiol 17-hemisuccinate: BSA [17β-estradiol-BSA]”: the “effect on the baclofen response (in words)” value in assay [1] (100 nM, substance alone) is listed as “fully efficacious in inhibiting the baclofen response; also recorded: inhibited the baclofen response; also recorded: identical response to free 17β-estradiol”.

As to `C[C@]12CC[C@@H]3c4ccc(O)cc4CC[C@H]3[C@@H]1CC[C@H]2O` [17α-estradiol], in assay [1] (1 μM, substance alone), the “effect on the baclofen response (in words)” value was “no effect; also recorded: inactive; also recorded: no effects were observed”.

In the case of `C[C@]12CC[C@@H]3c4ccc(O)cc4CC[C@H]3[C@@H]1CC[C@@H]2O` [17β-estradiol], in assay [1], the “R2/R1 (second over first baclofen response)” value was found to be 58.6±3.4% and the “decrease in the response to a second application of baclofen (GABAB outward current)” value amounted to 41%. In addition, the “effect on the baclofen response (in words)” value in assay [1] (100 nM, substance alone) was “no effect”.

Take `O=C(O)CN(CC(=O)O)c1ccccc1OCCOc1ccccc1N(CC(=O)O)CC(=O)O` [BAPTA, 1,2-bis-(o-aminophenoxyethane)-N,N,N′,N′-tetraacetic acid]: in assay [1] (10 mM in the internal solution replacing EGTA, with 17β-estradiol), the “effect on the 17β-estradiol attenuation of the baclofen response (in words)” value (“effect on the 17β-estradiol attenuation” for short) is “still observed”.

With `CN(C)CCCn1cc(C2=C(c3c[nH]c4ccccc34)C(=O)NC2=O)c2ccccc21.Cl` [BIS, bisindolylmaleimide I hydrochloride], in assay [1], the “effect on the 17β-estradiol attenuation” value is on record as “nearly eliminated the effects of 17β-estradiol”.

With `Cl.Cl.O=S(=O)(NCCNC/C=C/c1ccc(Br)cc1)c1cccc2cnccc12` [Compound H89], the “effect on the 17β-estradiol attenuation” value in assay [1] (setting [3]) is reported as “blocked”.

For the compound `N#CC(=C(/N)Sc1ccccc1N)/C(C#N)=C(/N)Sc1ccccc1N` [Compound U0126], the “effect on the 17β-estradiol attenuation” value in assay [1] (5 μM, with 17β-estradiol) is “did not affect 17β-estradiol inhibition of baclofen responses”.

On to `COc1ccc2c(c1)CC[C@@H]1[C@@H]2CC[C@]2(C)[C@@H](NCCCCCCN3C(=O)C=CC3=O)CC[C@@H]12` [Compound U73122], for which the “effect on the 17β-estradiol attenuation” value in assay [1] (setting [3]) was “blocked”.

Turning to `COc1ccc2c(c1)CC[C@@H]1[C@@H]2CC[C@]2(C)[C@@H](NCCCCCCN3C(=O)CCC3=O)CC[C@@H]12` [Compound U73343], the “effect on the 17β-estradiol attenuation” value in assay [1] (setting [3]) was “no effect”.

Regarding `CC/C(=C(\c1ccccc1)c1ccc(/C=C/C(=O)O)cc1)c1ccccc1` [GW-5638], in assay [1] (1 μM, substance alone), the “effect on the baclofen response (in words)” value is “significantly more efficacious than 17β-estradiol; also recorded: behave like 17β-estradiol”.

Turning to `Cn1c2ccccc2c2c3c(c4c5ccccc5n(CCC#N)c4c21)CNC3=O` [Gö6976], the “effect on the 17β-estradiol attenuation” value in assay [1] (concentration not given, with 17β-estradiol) is “without effect”.

`C[C@]12CC[C@@H]3c4ccc(O)cc4C[C@@H](CCCCCCCCC[S+]([O-])CCCC(F)(F)C(F)(F)F)[C@H]3[C@@H]1CC[C@@H]2O` (some centres unmarked) [ICI 182,780]: the “effect on the baclofen response (in words)” value in assay [1] (1 μM, substance alone) is “no effect”. The “effect on the 17β-estradiol attenuation” value in assay [1] (1 μM, together with 17β-estradiol (100 nM)) is reported as “blocked”; in assay [1] (1 μM, together with 17β-estradiol (100 nM), listed as ICI-182,780) it was “antagonizes the 17β-estradiol response”.

Regarding `COc1cccc(-c2cc(=O)c3ccccc3o2)c1N` [PD98059], in assay [1] (setting [3]), the “effect on the 17β-estradiol attenuation” value is “did not affect 17β-estradiol inhibition of baclofen responses”. The “R2/R1 (second over first baclofen response), substance + 17β-estradiol” value in assay [1] (substance 10 μM in the pipette together with 17β-estradiol) is reported as 66.1±11.8%.

With `O=C(c1ccc(OCCN2CCCCC2)cc1)c1c(-c2ccc(O)cc2)sc2cc(O)ccc12` [Raloxifene, raloxifene], in assay [1], the “effect on the baclofen response (in words)” value is listed as “completely mimicked the actions of 17β-estradiol; also recorded: behave like 17β-estradiol”.

Regarding `Nc1ncnc2c1ncn2[C@@H]1O[C@@H]2COP(O)(=S)O[C@H]2[C@H]1O` (some centres unmarked) [Rp-cAMP], in assay [1] (200 μM, intracellular dialysis, with 17β-estradiol), the “effect on the 17β-estradiol attenuation” value is listed as “abolished”.

With `CC/C(=C(\c1ccccc1)c1ccc(OCCN(C)C)cc1)c1ccccc1` [Tamoxifen, tamoxifen], in assay [1], the “effect on the 17β-estradiol attenuation” value was “did not attenuate the effects of 17β-estradiol” and the “effect on the baclofen response (in words)” value was “inactive”.

For `C[C@]12CC[C@@H]3c4ccc(OC(=O)c5ccccc5)cc4CC[C@H]3[C@@H]1CC[C@@H]2O` [estradiol benzoate], in assay [2], the uterine size entry is listed as “noticeable increase in uterine size”.

Consider `CC(=O)c1c(O)c(C)c(O)c(Cc2c(O)c3c(c(C(=O)/C=C/c4ccccc4)c2O)OC(C)(C)C=C3)c1O` [rottlerin], for which the “effect on the 17β-estradiol attenuation” value in assay [1] is given as “completely blocked”.

For Ac-LGLNLKEYNLV-OH [Gq peptide], the “effect on the 17β-estradiol attenuation” value in assay [1] is “significantly blocked”.
